# Data: US20070219180A1, “Muscle Relaxtion Accelerator and Therapeutic Agent for Muscular Tissue Diseases Such as Muscle Relaxation Failure” (priority 2004, published 2007)
# Where “and” joins values, the source holds several entries; their conditions need not be identical. Identical values can stand only once.
# System: male Wistar rats
# Test: Experiment 12: effect on myocardial microcirculation (microsphere myocardial tissue blood flow rate)
# Format: in vivo, rat
# Procedure: The effects of the compound on myocardial microcirculation were examined. In this experiment, the 1-hydrochloride of the compound, 4-[3-(4-benzylpiperidin-1-yl)propionyl]-7-methoxy-2,3,4,5-tetrahydro-1,4-benzothiazepine 1-hydrochloride (hereinafter called the compound) was used as the 1,4-benzothiazepine derivative or pharmaceutically acceptable salt thereof.
# Four 8-week old male Wistar rats weighing 300-310 g were used in the study. The rats were anesthetized with 1,000 mg/kg of urethane and 80 mg/kg of α-chloralose by subperitoneal injection under artificial respiration (Harvard) using endotracheal intubation. In this experiment, 100 mg of the compound was dissolved in 1 ml of dimethylsulfoxide (DMSO) and the resulting DMSO solution of the compound was stored at 4° C. Norepinephrine solution was prepared by dissolving 1 mg of norepinephrine in 41 μl of distilled water, at an infusion speed of 30 μg/kg/min.
# Firstly, continuous infusion catheters of calcium chloride solution or norepinephrine solution containing calcium chloride were inserted into the right external jugular veins of the rats, and 2F polyethylene catheters for microspheres were inserted into the left ventricles via the right common arteries. In addition, test drug infusion catheters were inserted into the right femoral veins.
# A 1-lead electrocardiogram and the left ventricular pressure were recorded simultaneously on a personal computer via an A/D converter. In the preparation step, blood pressure, pulse, and electrocardiogram of the rats were monitored for 15 minutes and allowed to stabilize, and then 5% dextrose solution containing calcium chloride (at a concentration based on the weight of the rat) was infused into the right external jugular vein for 20 minutes at 16.6 μl/min (12 mg/kg/min of calcium chloride). Next, norepinephrine solution containing calcium chloride without changes in dosage regimen was immediately injected at a rate of 30 μg/kg/min via the right external jugular vein. After the start of administration, calcium chloride and norepinephrine were then continuously injected in the form of a norepinephrine solution containing calcium chloride. With continuous injection of calcium chloride via the right external jugular vein, 5% dextrose solution containing 0.1% DMSO solution was administered via the right femoral vein to Control A rat weighing 310 g (to which the compound was not administered) and to Control B rat weighing 300 g (to which the compound was not administered), 5 minutes before commencement of injection (intravenous injection) of the norepinephrine solution containing calcium chloride. In addition, with continuous injection of calcium chloride via the right external jugular vein, a 5% dextrose solution of the compound was continuously administered to Test 15 rat weighing 300 g and Test 16 rat weighing 300 g for 3 minutes at a rate of 0.33 mg/kg/min and subsequently for 25 minutes at a rate of 0.01 mg/kg/min, 5 minutes before commencement of injection (intravenous injection) of the norepinephrine solution containing calcium chloride via the right external jugular vein. The infusion rate was 0.5 ml/3 minutes for the first 3 minutes and then 0.05 ml/3 minutes.
# Myocardial tissue blood flow rate was measured twice using microspheres, 5 minutes before the start of calcium chloride administration and 20 minutes after the start of administration of norepinephrine solution containing calcium chloride. […]
structure (smiles),measurement,setting,value
"COc1ccc2c(c1)CN(C(=O)CCN1CCC(Cc3ccccc3)CC1)CCS2 [the compound, 4-[3-(4-benzylpiperidine-1-yl)propionyl]-7-methoxy-2,3,4,5-tetrahydro-1,4-benzothiazepine]",Myocardial tissue blood flow rate,"5 minutes before the start of CaCl2 administration (baseline), compound later 0.33 mg/kg/min 3 min then 0.01 mg/kg/min 25 min",4.6 mL/min/g and 4.3 mL/min/g
same,"Myocardial tissue blood flow rate, ratio to 5 minutes before CaCl2",5 minutes before the start of CaCl2 administration (defined as 100%),100%
same,Decrease in myocardial tissue blood flow under diastolic dysfunction with administration of the compound,20 minutes after the start of norepinephrine containing CaCl2,≤ 30%
same,"Myocardial tissue blood flow rate, ratio to 5 minutes before CaCl2","20 minutes after the start of norepinephrine solution containing CaCl2, compound 0.33 mg/kg/min 3 min then 0.01 mg/kg/min 25 min",70% and 98%
same,Myocardial tissue blood flow rate,"20 minutes after the start of norepinephrine solution containing CaCl2, compound 0.33 mg/kg/min 3 min then 0.01 mg/kg/min 25 min, from 5 min before norepinephrine",3.2 mL/min/g and 4.2 mL/min/g
